Measurements from PMC10916382, “Repurposing screen identifies novel candidates for broad-spectrum coronavirus antivirals and druggable host targets” (Antimicrobial Agents and Chemotherapy, 2024).
pIC50: −log10 of the molar value. Where two headings read alike, the source gives them in different places.

What was measured:
[1] = system: Huh-7.5/F-Luc cells
[2] = system: SARS-CoV-2
[3] = system: HCoV-229E; assay: microbe, parasite or virus in culture; format: cell-based, Homo sapiens sapiens; conditions: HCoV 229E infection, dose series, max. dose 5 µM; read-out: IC50
[4] = Huh-7.5 cells, dose series, maximum tested dose 5 µM

Row | Compound | CC50 (µM) [1, 4] | % cell viability at max. dose [5 µM] ([1]; at max. dose 5 µM) [%] | Anti-SARS-CoV-2 screening on Calu-3 cells: viability [% of control] ([2]; Calu-3 cells) | Anti-SARS-CoV-2 screening on Calu-3 cells: intracellular SARS-CoV-2 infection measured via immunofluorescence imaging [% of control] ([2]; Calu-3 cells) | pIC50 [3] | % cell viability at max. dose [5 µM] [1] [%] | CC50 (µM) [1] | Anti-SARS-CoV-2 screening on Calu-3 cells: viability [% of control] [2]
1 | c1ccc(CCCC(Oc2ccccc2OCc2ccccc2)C2=NCCN2)cc1 (centres unmarked) [MDL 102588] | greater than maximum tested dose | 109.08 | 101.49 % of control | 108.93 % of control | 6.28 |  |  | 
2 | CC(C)c1ccc(C(=O)c2cccs2)c(SCCCCCCCCN(C)C)n1 [Y 29794] | greater than maximum tested dose | 121.37 | 88.61 % of control | 99.31 % of control | 6.48 |  |  | 
3 | C=C1C[C@@H]2CC[C@@]34C[C@H]5O[C@H]6[C@@H](O3)[C@H]3O[C@H](CC[C@@H]3O[C@H]6[C@H]5O4)CC(=O)C[C@@H]3[C@@H](OC)[C@@H](C[C@H](O)CN)O[C@H]3C[C@H]3O[C@@H](CC[C@@H]1O2)C[C@@H](C)C3=C [Eribulin (mesylate)] | greater than maximum tested dose | 97.37 | 41.43 % of control | 29.49 % of control | 7.30 |  |  | 
4 | Cc1ccc(Sc2ccccc2C2CCNCC2)cc1 [LU-AA24530] | greater than maximum tested dose | 150.91 | 106.74 % of control | 100.77 % of control | 6.17 |  |  | 
5 | COC(=O)C1=C(C)NC(C)=C(C(=O)OCCCCNC[C@H](O)COc2ccccc2)C1c1cccc([N+](=O)[O-])c1 (some centres unmarked) [YM 430] | greater than maximum tested dose | 137.51 | 101.27 % of control | 99.21 % of control | 6.09 |  |  | 
6 | C=CCc1c(OCCCNCc2ccccc2)ccc2c1[nH]c1ccccc12 [YM-75440] | greater than maximum tested dose | 65.35 | 100.37 % of control | 109.36 % of control | 6.14 |  |  | 
7 | CN(C)CCCOC(CCCCc1ccccc1)c1ccccc1 (centres unmarked) [SM-3163] | greater than maximum tested dose | 166.12 | 103.94 % of control | 105.69 % of control | 6.11 |  |  | 
8 | Cc1c(-c2ccccc2)oc2ccc(OCCCCCCN3CCC(O)CC3)cc2c1=O [NPC 16377] | greater than maximum tested dose | 107.69 | 101.43 % of control | 119.40 % of control | 5.97 |  |  | 
9 | CC1(C)CC[C@]2(NC(=O)C(C)(F)F)CC[C@]3(C)[C@H](C(=O)C=C4[C@@]5(C)C=C(C#N)C(=O)C(C)(C)[C@@H]5CC[C@]43C)[C@@H]2C1 [RTA-63415 / Omaveloxolone] |  |  |  | 99.52 % of control | 7.10 | 77.27 | greater than maximum tested dose | 122.72 % of control
10 | COc1cc(C(C)=O)ccc1OCCCN1CCC(C(O)(c2ccc(F)cc2)c2ccc(F)cc2)CC1 [AHR-5333] | greater than maximum tested dose | 162.61 | 103.33 % of control | 98.57 % of control | 6.00 |  |  | 
